The test system of test [1] is DOCK8/STAT3 signaling pathway. Put plainly: Protein phosphorylation analysis by intracellular flow cytometry in stimulated B cells. As to conditions: heme 10 μM. It is filed as cell-based, human. The procedure:
Protein phosphorylation analysis: B cells were short-term (maximum overnight) stimulated using the same B cell activation cocktail as above in the absence or presence of hemin (10 μM) after which B cells were fixed with the same volume pre-warmed Phosflow Fix buffer I (BD Bioscience) for 10 min at 37° C. After that, cells were washed twice with MACS buffer (400×g, 4° C., 5 min) followed by addition of 0.4 ml Perm buffer Ill (pre-chilled in −20° C., BD Bioscience) for 30 min on ice. After two washes with MACS buffer, samples were stained with staining buffer (anti-Pyk2(pY402), SYK(pY319), SRC(pY418), and STAT3(pY705), 100 fold diluted with MACS buffer) at 4° C. for 45 min, washed and analyzed by flow cytometry.
It has been shown that plasma free-heme can directly bind to DOCK8 protein and inhibit monocyte/macrophage phagocytosis through the DOCK8-Cdc42 signaling pathway. DOCK8/STAT3 signaling pathway activation, leading to phosphorylation of Pky2, SYK, SRC, and STAT3, has also been reported to be critical for B cell activation, although the effect of heme on this activation pathway was not examined. To test whether DOCK8/STAT3 signaling is inhibited by cell-free heme during B cell activation, we analyzed the phosphorylation of Pyk2, SYK, SRC, and STAT3 following short-term stimulation in the presence or absence of heme (10 μM) by intracellular flow cytometric analysis. […]
On the technique in general: A flow cytometer gives signals particle by particle.

The subject of test [2] is CD27+ memory B cells from healthy donors. Put plainly: 7-day stimulated memory B cell culture. It is filed as cell-based, human. The conditions noted are these: different doses of hemin, 7 days. From the text:
FIG. 6A-G. Effect of heme on memory plasmablast differentiation and IgG class-switch B cell development. FIG. 6A: Gating strategy for single live B cell analysis after culture. FIG. 6B: Fold change in CD38+ plasmablast cells in 7-day stimulated HD purified CD27+ memory B cells (as described for naïve B cell cultures in FIG. 1) in the presence of different doses of hemin relative to no hemin treatment. FIG. 6C: Histogram showing IgG expression levels in CD38+ plasmablasts from naïve B cell stimulated cultures. FIG. 6D: Fold change of IgG+ cell frequency in CD38+ plasmablasts in the presence of 2.5 μM or 5 μM hemin relative to no hemin treatment in stimulated naïve B cells from HD, Allo(−) and Allo(+) SCD patients. FIG. 6E: Naïve B cells from HD were cultured with 20% SCD patients' sera from Allo(−) or Allo(+) patients and stimulated with B cell activation cocktail for 7 days as described. Frequency of CD38+ plasmablasts is shown. FIG. 6F: Fold change of proliferated B cell frequency (within total, live B cells) in the presence of 2.5 μM or 5 μM hemin relative to no hemin treatment in stimulated naïve B cells from HD, Allo(−) and Allo(+) SCD patients. FIG. 6G: The change and fold change of live cell frequency in total 7-day stimulated HD B cell in the presence of different concentrations of hemin.
Cell isolation and culture.

SMILES strings stand for the structures.

Consider `C=CC1=C(C)c2cc3[n-]c(cc4[n-]c(cc5nc(cc1n2)C(C)=C5C=C)c(C)c4CCC(=O)O)c(CCC(=O)O)c3C.[Fe+2]` [heme, iron(III) complex of protoporphyrin IX], for which the p-STAT3 entry in test [1] (overnight samples) is “inhibitory effect”. Moreover, the “levels of phosphorylated (p)-Pyk2/SYK/SRC/STAT3” value in test [1] (short-term stimulation (15 min)) is “significant reduction”. The “effect on memory B cell proliferation or differentiation” value in test [2] is given as “no effect”.
